Like-named read-outs stand apart in the source and are kept apart here.
Tests used:
[1] = Liver microsome metabolic stability test (human); assay type: in vitro ADME; conditions: liver microsomes, read-out: CLint (μL/min/mg) Human
Experimental: (§1) 1: To the sample wells of T0, T5, T10, T20, T30, T60 and NCF60, 10 μL of the test or reference working solution and 80 μL of microsome working solution (hepatic microsome with a protein concentration of 0.5 mg/mL) were added, and to Blank60 well, only the microsome working solution was added. Then samples of the Blank60, T5, T10, T20, T30 and T60 other than TO and NCF60 were placed in a 37° C. water bath and pre-incubated for about 10 min.
(§2) 2: To the TO sample well, 300 μL of stop solution (containing 200 ng/mL tolbutamide and 200 ng/mL labetalol in acetonitrile solution) was added first, followed by 10 μL of NADPH regeneration system working solution.
(§3) 3: After the pre-incubation of Blank60, T5, T10, T20, T30 and T60 incubation plates, 10 μL of NADPH regeneration system working solution was added to each sample well to start the reaction, and 10 μL of 100 mM potassium phosphate buffer was added to the NCF60 sample well.
(§4) 4: After incubation for an appropriate time (such as 5, 10, 20, 30 and 60 min), to each test sample well and control well of the Blank60, T5, T10, T20, T30, T60 and NCF60 plates, 300 μL of stop solution was added to terminate the reaction.
(§5) 5: All sample plates were shaken to mix well and centrifuged at 4000 rpm for 20 min, and 100 μL of the supernatant of the test sample or control sample was taken and diluted with 300 μL of pure water for LC-MS/MS analysis.
(§6) 6: Data analysis: T1/2 and CLint(mic) (μL/min/mg) values were calculated according to the first-order elimination kinetics. The first-order elimination kinetics equation was: […]

TMD8 cell proliferation = test: In vitro cell proliferation inhibitory activity test (CTG), TMD8; assay type: cell-based; conditions: Homo sapiens, TMD8, 72 h, TMD8 cells
Experimental: (§7) Test Example 4: In Vitro Cell Proliferation Inhibitory Activity Test
(§8) Cells were cultured in 1640 medium, added with 10% inactivated FBS and 1% double antibiotics, and cultured at 37° C. and 5% CO2.
(§9) (1) Cells were routinely cultured until the cell density was 80%-90%, and the cells were harvested when their number reached the requirement.
(§10) (2) Cells were resuspended with corresponding culture medium, counted, and prepared into cell suspension at appropriate density.
(§11) (3) The cell suspension was added to a 96-well plate, 100 μL per well.
(§12) (4) Cells were cultured overnight in a 37° C., 5% CO2 incubator.
(§13) (1) The compounds to be tested were diluted with DMSO to make a stock solution with a final concentration of 20 mM for later use.
(§14) (2) The stock solution was diluted 10 times from 20 mM to 2 mM with DMSO, and then diluted 3 times from 2 mM to 9 concentrations.
(§15) (3) The blank control wells were cells plus 0.5% DMSO, as high-reading control wells.
(§16) (4) Wells with no cells and only medium were used as low-reading control wells.
(§17) 4: Cell treatment with compound
(§18) (1) 24 h after the cells were plated, the compounds acted alone, and 99 μL of growth medium was added to each well, followed by 1 μL of the compound prepared in step 3. The plate was shaken gently to mix uniformly, and then placed in a 37° C., 5% CO2 incubator.
(§19) (2) The cell plate was placed in an incubator for 72 h.
(§20) 5: Detection by CTG method
(§21) (1) The cell plate to be tested was placed at room temperature for 30 min, and 100 μL of medium was discarded from each well.
(§22) (2) 100 μL of CTG reagent (CelltiterGlo kit) was added to each well, placed on a fast shaker for 2 min, and stood at room temperature in the dark for 30 min.
(§23) (3) The chemiluminescent signal value was read with the Envision instrument.
(§24) IC50 was calculated by using GraphPad Prism 8 software. The IC50 (half inhibitory concentration) of the compound was derived using the following nonlinear fitting formula, and the results are shown in the following table:
(§25) Y=Bottom+(Top−Bottom)/(1+10^((Log IC50−X)×HillSlope))
(§26) X: log value of compound concentration, Y: inhibition rate (% inhibition)
(§27) Inhibition rate (% inhibition)=(reading of high-reading control well-reading of compound well)/(reading of high-reading control well-reading of low-reading control well)×100

[2] = tested on: TMD8 mouse subcutaneous xenograft tumor; test: TMD8 pharmacodynamic model test; assay type: in vivo; conditions: same dose of 10 mg/kg, FIG. 1
Experimental: Test Example 7: TNMD8 Pharmacodynamic Model Test
Human diffuse large B-cell lymphoma TMD8 cells were monolayer-cultured in vitro in RPNHI1640 medium with […], 100 U/mL penicillin and 100 μg/mL streptomycin, in a 37° C., […] incubator. Routine digestion with trypsin-EDTA was performed twice a week for passaging. When the cell density was […] and the number reached the requirement, cells were harvested, counted and inoculated. 0.2 ml (1×10^7 cells) of TMVD8 cells (added with matrigel at a volume ratio of 1:1) were subcutaneously inoculated on the right back of each mouse. The mice were administered in groups when the average tumor volume reached about 137 mm^3. Tumor diameters were measured twice a week with vernier calipers. The tumor volume was calculated by the formula V=0.5 a×b^2, where a and b represent the long and short diameters of the tumor, respectively.

[3] = Liver microsome metabolic stability test (rat); assay type: in vitro ADME; conditions: liver microsomes, read-out: CLint (μL/min/mg) Rat
Experimental: as §1, §2, §3, §4, §5, §6

DOHH2 cell proliferation = test: In vitro cell proliferation inhibitory activity test (CTG), DOHH2; assay type: cell-based; conditions: Homo sapiens, DOHH-2
Experimental: as §7, §8, §9, §10, §11, §12, §13, §14, §15, §16, §17, §18, §19, §20, §21, §22, §23, §24, §25, §26, §27

[4] = tested on: NCI-N87 cell proliferation; test: In vitro cell proliferation inhibitory activity test (CTG), NCI-N87; assay type: cell-based; conditions: Homo sapiens
Experimental: as §7, §8, §9, §10, §11, §12, §13, §14, §15, §16, §17, §18, §19, §20, §21, §22, §23, §24, §25, §26, §27

BT474 cell proliferation = test: In vitro cell proliferation inhibitory activity test (CTG), BT474; assay type: cell-based; conditions: Homo sapiens, BT-474, BT474 cell proliferation
Experimental: as §7, §8, §9, §10, §11, §12, §13, §14, §15, §16, §17, §18, §19, §20, §21, §22, §23, §24, §25, §26, §27

HER2 kinase = HER2 kinase (Homo sapiens, UniProt P04626); test: HER2 kinase activity test (HTRF); assay type: biochemical
Chain of HER2 kinase (P04626 23-1255): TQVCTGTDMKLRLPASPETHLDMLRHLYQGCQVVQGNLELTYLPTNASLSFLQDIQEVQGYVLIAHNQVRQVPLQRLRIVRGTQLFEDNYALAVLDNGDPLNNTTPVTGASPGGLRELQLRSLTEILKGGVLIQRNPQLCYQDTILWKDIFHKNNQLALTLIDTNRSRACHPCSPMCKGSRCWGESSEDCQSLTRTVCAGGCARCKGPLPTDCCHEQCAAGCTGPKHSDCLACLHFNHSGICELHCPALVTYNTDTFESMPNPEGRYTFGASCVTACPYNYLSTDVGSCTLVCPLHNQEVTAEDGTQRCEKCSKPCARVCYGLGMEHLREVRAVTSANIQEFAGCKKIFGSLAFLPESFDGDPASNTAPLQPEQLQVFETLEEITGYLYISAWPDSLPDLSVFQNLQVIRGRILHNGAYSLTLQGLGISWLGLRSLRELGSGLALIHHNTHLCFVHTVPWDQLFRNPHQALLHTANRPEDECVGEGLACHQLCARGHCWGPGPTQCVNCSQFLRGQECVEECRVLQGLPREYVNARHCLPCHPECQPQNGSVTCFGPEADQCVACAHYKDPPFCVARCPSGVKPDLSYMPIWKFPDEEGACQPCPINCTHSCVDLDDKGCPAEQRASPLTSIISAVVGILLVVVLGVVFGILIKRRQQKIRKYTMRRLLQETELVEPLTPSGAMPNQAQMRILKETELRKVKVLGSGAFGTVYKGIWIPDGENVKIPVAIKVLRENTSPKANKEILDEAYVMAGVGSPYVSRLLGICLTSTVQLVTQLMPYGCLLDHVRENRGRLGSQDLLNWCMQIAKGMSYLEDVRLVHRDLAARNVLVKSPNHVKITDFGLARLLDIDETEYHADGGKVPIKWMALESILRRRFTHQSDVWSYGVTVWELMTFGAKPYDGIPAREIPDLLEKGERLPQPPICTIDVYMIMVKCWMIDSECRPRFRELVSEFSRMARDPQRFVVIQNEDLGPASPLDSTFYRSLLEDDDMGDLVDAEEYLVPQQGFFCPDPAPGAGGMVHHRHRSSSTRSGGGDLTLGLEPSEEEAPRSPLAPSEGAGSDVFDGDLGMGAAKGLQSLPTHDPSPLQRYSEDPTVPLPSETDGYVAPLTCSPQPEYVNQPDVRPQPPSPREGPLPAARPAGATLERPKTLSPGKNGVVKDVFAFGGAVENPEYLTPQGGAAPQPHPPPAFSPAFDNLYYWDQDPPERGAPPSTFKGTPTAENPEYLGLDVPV
Experimental: Test Example 5: HER2 Kinase Activity Test
1. Her2 Kinase test steps
2) 100 nl of the diluted compound working solution was transferred into each well of a reaction plate (784075, Greiner) by an Echo 550 liquid hander. The reaction plate was sealed with a sealing film and centrifuged at 1000 g for 1 min.
3) 1 ng/μL Her2 kinase solution was prepared with 1× kinase reaction buffer.
4) 5 μL of the kinase solution prepared above was added to each well of the reaction plate. The plate was sealed with a sealing film, centrifuged at 1000 g for 1 min, and placed at room temperature for 10 min.
5) A mixture of 2× kinase substrate and ATP was prepared by using 1× kinase reaction buffer, and the 2× Her2 kinase substrate was 2 μM TK-substrate-biotin and 4 μM ATP
6) 5 μL of the mixture of 2× TK-substrate-biotin and ATP was added to the reaction plate, centrifuged at 1000 g for 30 seconds to start the reaction.
7) Her2 kinase test was performed at room temperature for 50 min of reaction.
9) 10 μL of the mixture of Sa-XL 665 and TK-antibody-Cryptate was added to each well, centrifuged at 1000 g for 30 seconds, and reacted at room temperature for 1 h.
10) The fluorescence signals at 615 nm (Cryptate) and 665 nm (XL665) were read by Envision 2104.
1) The percentage inhibition was calculated as follows: […]
Ratiopositive control: average value of Ratio 665/615 nm of all positive control wells in the plate.
Rationegative control: average value of Ratio 665/615 nm of all negative control wells in the plate.
2) Calculation of IC50 and fitting of dose-effect curve of compound:
The IC50 of the compound was derived using the following nonlinear fitting formula with GraphPad 6.0.
Y=Bottom+(Top−Bottom)/(1+10^((Log IC50−X)×HillSlope)).
X: log value of compound concentration; Y: percentage inhibition of compound

[5] = Blood-brain barrier permeability test, oral, SD rats; assay type: in vivo; conditions: rat, oral 10 mg/kg single dose; for concentration at 1 h / Kp at 1 h: time point 1 h; for concentration at 4 h / Kp at 4 h: time point 4 h
Experimental: Test Example 6: Blood-Brain Barrier Permeability Test
Each test compound was administered orally at a single dose of 10 mg/kg to SD rats for pharmacokinetic study. Each group included 9 rats. The test compound was dissolved in 5% DMSO+10% solutol+85% saline, vortexed for 1-2 min, and ultrasonicated for 5-10 min to prepare into a colorless, transparent and clear administration solution. Animals were fasted overnight before administration. 1 h, 2 h, and 4 h after administration, three SD rats were selected from each group to take about 0.2-0.3 mL of blood through their orbit. The blood sample was placed on ice once collected, and centrifuged to separate the plasma within 15 min (centrifugation conditions: 8000 rpm, 1 min, room temperature). The collected plasma was stored at −20° C. before analysis. Immediately after blood collection, the cerebrospinal fluid and brain tissue were collected. The cerebrospinal fluid was draw out by dural puncture with a micro-sampler syringe under direct vision. Namely, about 100 μl of cerebrospinal fluid was collected with a 100 μl micro sample syringe from the rat that was anesthetized by chloral hydrate, with the head-fixed, the back hair-cut off, a transverse incision (2 cm) made at the line connecting the roots of the two ears, and the muscle layer of the neck and skull base bluntly scraped to expose the foramen magnum. The cerebrospinal fluid was stored at −20° C. before analysis. The rat then was sacrificed immediately, with its head cut off. The dissected brain tissue, with the surface capillaries peeled off, was weighed, added with 3 times the amount of cold saline, homogenized by a homogenizer for 1 min, and stored at −20° C. before analysis. 20 μL of plasma sample and brain homogenate sample was respectively added into 200 μL of working internal standard solution (the same volume of vehicle was added to the blank instead of internal standard), vortexed for 1 min, and centrifuged at 13500 rpm for 10 min. 100 μL of the supernatant was taken and analyzed by LC-MS/MS. 20 μL of the cerebrospinal fluid was added into 60 μL of working internal standard solution (the same volume of vehicle, instead of internal standard, was added to the blank), vortexed for 1 min, and centrifuged at 13500 rpm for 10 min. 50 μL of the supernatant was taken and analyzed by LC-MS/MS.

[6] = brain, read-out: Drug concentration in brain tissue
[7] = brain/plasma, read-out: Brain tissue/plasma
[8] = cerebrospinal fluid, read-out: Drug concentration in cerebrospinal fluid
[9] = cerebrospinal fluid/plasma, read-out: Cerebrospinal fluid/plasma
[10] = plasma, read-out: Plasma drug concentration

COc1cccc(Oc2ccc(-c3nc(C4CCC(CO)OC4)n4ccnc(N)c34)cc2)c1C#N (single isomer, unassigned) [Example 89-P1]
microsomal CLint [1]: < 9.6 µL/min/mg | IC50 (TMD8 cell proliferation): 4.3 nM | inhibitory effect against the tumor compared with ARQ-531 and ibrutinib [2]: significantly better inhibitory effect against the tumor than the clinical phase II drug ARQ-531 and the marketed drug ibrutinib | microsomal CLint [3]: 15.7 µL/min/mg

O=C(c1ccc(Oc2ccccc2)cc1Cl)c1c[nH]c2ncnc(N[C@@H]3CC[C@@H](CO)OC3)c12 [ARQ-531, reference compound]
microsomal CLint [1]: < 9.6 µL/min/mg | IC50 (TMD8 cell proliferation): 74.6 nM | IC50 (DOHH2 cell proliferation): 174 nM | microsomal CLint [3]: < 9.6 µL/min/mg

Nc1nccn2c(C34CCC(CO)(CC3)OC4)nc(-c3ccc(C(F)(F)c4cccc(F)c4F)cc3)c12 [Example 130]
IC50 [4]: 100 nM | IC50 (BT474 cell proliferation): 89.9 nM | IC50 (HER2 kinase): 4.35 nM

Nc1nccn2c(C34CCC(CO)(CC3)OC4)nc(-c3ccc(C(F)(F)c4cccc(F)c4)cc3)c12 [Example 142]
IC50 [4]: 106 nM | IC50 (BT474 cell proliferation): 153 nM

Nc1nccn2c(C34CCC(CO)(CC3)OC4)nc(-c3ccc(C(F)(F)c4cccc(F)c4Cl)cc3)c12 [Example 146]
IC50 [4]: 82 nM | IC50 (BT474 cell proliferation): 86.9 nM | concentration at 1 h [5, 6]: 296 ng/g | concentration at 4 h [5, 6]: 410 ng/g | Kp at 1 h [5, 7]: 0.78 | Kp at 4 h [5, 7]: 1.1 | concentration at 1 h [5, 8]: 27.4 ng/mL | concentration at 4 h [5, 8]: 34.3 ng/mL | Kp at 1 h [5, 9]: 0.072 | Kp at 4 h [5, 9]: 0.092 | concentration at 1 h [5, 10]: 380 ng/mL | concentration at 4 h [5, 10]: 373 ng/mL | IC50 (HER2 kinase): 3.92 nM

COc1ccc(F)cc1C(=O)NCc1ccc(-c2nn([C@@H](C)C(F)(F)F)c(N)c2C(N)=O)cc1 [LOXO-305]
IC50 (TMD8 cell proliferation): 184 nM | IC50 (DOHH2 cell proliferation): 4990 nM

CC#CC(=O)N1CC[C@@H](n2c(=O)n(-c3ccc(Oc4ccccc4)cc3)c3c(N)ncnc32)C1 [Tirabrutinib, reference compound]
microsomal CLint [1]: 13.1 µL/min/mg | IC50 (TMD8 cell proliferation): 158 nM | IC50 (DOHH2 cell proliferation): 8090 nM | microsomal CLint [3]: 32.9 µL/min/mg | concentration at 1 h [5, 6]: 84 ng/g | concentration at 2 h ([5]; brain, time point 2 h, read-out: Drug concentration in brain tissue): 31.1 ng/g | concentration at 4 h [5, 6]: 13.3 ng/g | Kp at 1 h [5, 7]: 0.118 | Kp at 2 h ([5]; brain/plasma, time point 2 h, read-out: Brain tissue/plasma): 0.06 | Kp at 4 h [5, 7]: 0.054 | concentration at 1 h [5, 10]: 713 ng/mL | concentration at 2 h ([5]; plasma, time point 2 h, read-out: Plasma drug concentration): 515 ng/mL | concentration at 4 h [5, 10]: 226 ng/mL

From patent US20230257383A1, “COMPOUND SERVING AS BTK INHIBITOR, PREPARATION METHOD THEREFOR, AND USE THEREOF” (CHENGDU HYPERWAY PHARMACEUTICALS CO., LTD., priority 2020, published 2023)
